We go through 6 molecules from patent publication US20250113826A1, “AN AGROCHEMICAL COMBINATION” (UPL LIMITED, priority 2021, published 2025).

What all share (format): in vivo
For one assay, the system named is weedy Glycine max. The assay is described as follows: Greenhouse post-emergence herbicidal efficacy on weedy Glycine max. How it is done:
(§1) Evaluation of Post-Emergence Herbicidal Activity of Combinations Under Field Conditions
(§2) Methodology: Greenhouse trials were carried out to evaluate the efficacy of the combination of L-glufosinate and the other herbicides on weeds such as Glycine max, Spermacoce verticilata, Eleusine indica, Brachiaria decumbens. The soil used was sandy clay loam—Sand: 68.0%; Silt: 8.0%; Clay: 24.0%. All treatments were conducted in 4 replications per treatment with a spray volume of […].
(§3) The expected efficacy of a combination of L-glufosinate and the other herbicides was calculated using the well-established Colby method. Any difference between the observed and “expected” efficacy could be attributed to synergy between the two compounds.
(§4) In the Colby method, the expected (or predicted) response of a combination of herbicides is calculated by taking the product of the observed response for each individual component of the combination when applied alone, divided by 100, and subtracting this value from the sum of the observed response for each component when applied alone. An unexpected enhancement in efficacy of the combination is then determined by comparing the observed response of the combination to the expected (or predicted) response as calculated from the observed response of each individual component alone. If the observed response of the combination is greater than the expected (or predicted) response, or stated conversely, if the difference between the observed and expected response is greater than zero, then the combination is said to be synergistic or unexpectedly effective (Colby, S. R., Weeds, 1967(15), p. 20-22). The Colby method requires only a single dose of each herbicide applied alone and the mixture of both doses. The formula used to calculate the expected efficacy (EE) which was compared with the observed efficacy (OE) to determine the efficacy of the present invention is explained hereinbelow:
(§5) The expected efficacy for a combination of two active ingredients is as follows:
(§6) The expected efficacy for a combination of three active ingredients is as follows:
(§7) Where, • A=Observed efficacy of active ingredient A at the same concentration as used in the mixture. • B=Observed efficacy of the active ingredient B at the same concentration as used in the mixture. • C=Observed efficacy of the active ingredient C at the same concentration as used in the mixture.

Another assay concerns Spermacoce latifolia. The experiment in a line: Greenhouse post-emergence herbicidal efficacy on Spermacoce latifolia. As to conditions: L-glufosinate 150, imazethapyr 75, carfentrazone 7.5 g a.i./h. As to the method:
as §1, §2, §3, §4, §5, §6, §7

Another assay concerns Brachiaria decumbens. The experiment in a line: Greenhouse post-emergence herbicidal efficacy on Brachiaria decumbens. As to the method: as §1, §2, §3, §4, §5, §6, §7
A further assay concerns Eleusine indica. The experiment in a line: Greenhouse post-emergence herbicidal efficacy on Eleusine indica. As to the method:
as §1, §2, §3, §4, §5, §6, §7

Another assay deals with Amaranthus viridus. The assay is described as follows: Greenhouse post-emergence herbicidal efficacy on Amaranthus viridus. As to conditions: Table 11, 3 DAA, L-glufosinate 150, imazapic and imazapyr 31.5 + 10.5 g a.i./h. As to the method: as §1, §2, §3
In the Colby method, the expected (or predicted) response of a combination of herbicides is calculated by taking the product of the observed response for each individual component of the combination when applied alone, divided by 100, and subtracting this value from the sum of the observed response for each component when applied alone. An unexpected enhancement in efficacy of the combination is then determined by comparing the observed response of the combination to the expected (or predicted) response as calculated from the observed response of each individual component alone. […]

Another assay concerns Borreria verticillata. The assay is described as follows: Greenhouse post-emergence herbicidal efficacy on Borreria verticillata. To be noted: L-glufosinate 150, imazapic and imazapyr 31.5 + 10.5 g a.i./h. As to the method: as §1, §2, §3, §4, §5, §6, §7
[1] abbreviates: Table 9, 21 DAA, L-glufosinate 150, saflufenacil 30, 2,4 D 228 g a.i./h.
The mark [2] stands for this setting: Table 9, 28 DAA, L-glufosinate 150, saflufenacil 30, 2,4 D 228 g a.i./h.
Setting [3] is: Table 9, 35 DAA, L-glufosinate 150, saflufenacil 30, 2,4 D 228 g a.i./h.
[4] abbreviates: Table 3, 14 DAA, L-glufosinate 150, imazethapyr 75, carfentrazone 7.5 g a.i./h.
[5] abbreviates: Table 3, 21 DAA, L-glufosinate 150, imazethapyr 75, carfentrazone 7.5 g a.i./h.
Where [6] appears, read: Table 3, 28 DAA, L-glufosinate 150, imazethapyr 75, carfentrazone 7.5 g a.i./h.
Where [7] appears, read: Table 3, 35 DAA, L-glufosinate 150, imazethapyr 75, carfentrazone 7.5 g a.i./h.
The mark [8] stands for this setting: Table 6, 7 DAA, L-glufosinate 150, imazethapyr 75, carfentrazone 7.5 g a.i./h.
The mark [9] stands for this setting: Table 6, 14 DAA, L-glufosinate 150, imazethapyr 75, carfentrazone 7.5 g a.i./h.
Where [10] appears, read: Table 6, 21 DAA, L-glufosinate 150, imazethapyr 75, carfentrazone 7.5 g a.i./h.
The mark [11] stands for this setting: Table 6, 28 DAA, L-glufosinate 150, imazethapyr 75, carfentrazone 7.5 g a.i./h.
The mark [12] stands for this setting: Table 6, 35 DAA, L-glufosinate 150, imazethapyr 75, carfentrazone 7.5 g a.i./h.
The mark [13] stands for this setting: Table 4, 3 DAA, L-glufosinate 150, imazethapyr 75, carfentrazone 7.5 g a.i./h.
The mark [14] stands for this setting: Table 4, 7 DAA, L-glufosinate 150, imazethapyr 75, carfentrazone 7.5 g a.i./h.
The mark [15] stands for this setting: Table 4, 14 DAA, L-glufosinate 150, imazethapyr 75, carfentrazone 7.5 g a.i./h.
[16] abbreviates: Table 4, 21 DAA, L-glufosinate 150, imazethapyr 75, carfentrazone 7.5 g a.i./h.
Where [17] appears, read: Table 4, 28 DAA, L-glufosinate 150, imazethapyr 75, carfentrazone 7.5 g a.i./h.
[18] abbreviates: Table 4, 35 DAA, L-glufosinate 150, imazethapyr 75, carfentrazone 7.5 g a.i./h.
Where [19] appears, read: Table 7, 7 DAA, L-glufosinate 150, saflufenacil 30, triclopyr 228 g a.i./h.
The mark [20] stands for this setting: Table 8, 7 DAA (head; title says 3 days), L-glufosinate 150, saflufenacil 30, triclopyr 228 g a.i./h.

As to `O=C(O)COc1ccc(Cl)cc1Cl` [2,4 D, 2,4-D], the Control % was determined as 49.3% in the assay with weedy Glycine max (setting [1]), 43.8% in the assay with weedy Glycine max (setting [2]) and 41% in the assay with weedy Glycine max (setting [3]).
Turning to `Cc1nn(-c2cc(CC(Cl)C(=O)O)c(Cl)cc2F)c(=O)n1C(F)F` (stereo not shown) [Carfentrazone, carfentrazone], the Control % in the assay with Spermacoce latifolia (Table 5, 7 DAA) amounted to 58.3%; with Spermacoce latifolia (Table 5, 14 DAA), 64.3%; with Spermacoce latifolia (Table 5, 21 DAA) it was 64.3%; in the assay on Spermacoce latifolia (Table 5, 28 DAA), 64.3%; in the assay with Spermacoce latifolia (Table 5, 35 DAA) it was 63.3%; in the assay on weedy Glycine max (setting [4]), 50.3%. Also, the Control % is reported as 44.3% with weedy Glycine max (setting [5]); 44.3% with weedy Glycine max (setting [6]); 39.3% in the assay with weedy Glycine max (setting [7]); 14% with Brachiaria decumbens (setting [8]); 16.7% in the assay on Brachiaria decumbens (setting [9]); 15% in the assay with Brachiaria decumbens (setting [10]). Also, the Control % with Brachiaria decumbens (setting [11]) turned out to be 5%; in the assay on Brachiaria decumbens (setting [12]), 0%; with Eleusine indica (setting [13]) it was 8.7%; in the assay with Eleusine indica (setting [14]), 14%; with Eleusine indica (setting [15]) it was 12.3%; in the assay on Eleusine indica (setting [16]), 11%. Further, the Control % in the assay on Eleusine indica (setting [17]) was found to be 7.7%; with Eleusine indica (setting [18]), 0%.
On to `CCc1cnc(C2=NC(C)(C(C)C)C(=O)N2)c(C(=O)O)c1` (stereo not shown) [Imazethapyr, imazethapyr], for which the Control % in the assay with Spermacoce latifolia (Table 5, 7 DAA) turned out to be 13.3%; in the assay on Spermacoce latifolia (Table 5, 14 DAA), 30%; with Spermacoce latifolia (Table 5, 21 DAA), 36.7%; with Spermacoce latifolia (Table 5, 28 DAA) it was 30%; in the assay with Spermacoce latifolia (Table 5, 35 DAA), 26.7%; with weedy Glycine max (setting [4]) it was 10%. Also, the Control % is given as 20.0% in the assay with weedy Glycine max (setting [5]); 20.0% with weedy Glycine max (setting [6]); 15.0% in the assay with weedy Glycine max (setting [7]); 10% with Brachiaria decumbens (setting [8]); 10% in the assay on Brachiaria decumbens (setting [9]); 15% with Brachiaria decumbens (setting [10]). In addition, the Control % with Brachiaria decumbens (setting [11]) came to 10%; in the assay with Brachiaria decumbens (setting [12]), 5%; with Eleusine indica (setting [13]), 3.7%; in the assay on Eleusine indica (setting [14]), 8.3%; in the assay on Eleusine indica (setting [15]), 12%; in the assay with Eleusine indica (setting [16]), 12.7%. The figures for the Control % in the assay with Eleusine indica (setting [17]) and in the assay with Eleusine indica (setting [18]) were 12.7% and 10%, respectively.
For the molecule `CP(=O)(O)CC[C@H](N)C(=O)O` [L-glufosinate, (S)-2-amino-4-(hydroxy(methyl)phosphonyl)butanoic acid], the Control % is 50% with Amaranthus viridus; 35% with Spermacoce latifolia (Table 5, 7 DAA); 56.7% with Spermacoce latifolia (Table 5, 14 DAA); 56.7% with Spermacoce latifolia (Table 5, 21 DAA); 58.3% with Spermacoce latifolia (Table 5, 28 DAA); 58.3% with Spermacoce latifolia (Table 5, 35 DAA). Moreover, the Control % with Borreria verticillata (Table 10, 3 DAA) was determined as 50%; in the assay on Borreria verticillata (Table 10, 7 DAA), 80%; with Borreria verticillata (Table 10, 14 DAA) it was 95%; in the assay with Borreria verticillata (Table 10, 21 DAA) it was 90%; with Borreria verticillata (Table 10, 28 DAA) it was 90%; in the assay on Borreria verticillata (Table 10, 35 DAA) it was 85%. Further, the Control % in the assay with weedy Glycine max (setting [4]) is listed as 60%; in the assay with weedy Glycine max (setting [5]), 63.3%; in the assay on weedy Glycine max (setting [6]), 63.3%; with weedy Glycine max (setting [7]), 52.7%; in the assay on weedy Glycine max (setting [19]) it was 71.9%; in the assay on weedy Glycine max (setting [1]), 57.5%. For the same molecule, the Control % in the assay on weedy Glycine max (setting [2]) is listed as 50.6%; in the assay on weedy Glycine max (setting [3]), 47.5%; in the assay on Brachiaria decumbens (setting [8]), 46%; in the assay on Brachiaria decumbens (setting [9]) it was 54.3%; in the assay with Brachiaria decumbens (setting [10]), 53.3%; in the assay on Brachiaria decumbens (setting [11]), 48.3%. Further, the Control % in the assay with Brachiaria decumbens (setting [12]) is on record as 42%; with Brachiaria decumbens (setting [20]) it was 66.2%; with Eleusine indica (setting [13]) it was 15%; in the assay with Eleusine indica (setting [14]) it was 43.3%; in the assay with Eleusine indica (setting [15]), 41.3%; with Eleusine indica (setting [16]), 37.3%. Moreover, the Control % in the assay with Eleusine indica (setting [17]) came out at 28.3%; in the assay with Eleusine indica (setting [18]), 25.3%; in the assay on Eleusine indica (Table 12, 3 DAA, L-glufosinate 150, imazapic and imazapyr 31.5 + 10.5 g a.i./h), 40%; with Eleusine indica (Table 12, 7 DAA, L-glufosinate 150, imazapic and imazapyr 31.5 + 10.5 g a.i./h) it was 50%; with Eleusine indica (Table 12, 14 DAA, L-glufosinate 150, imazapic and imazapyr 31.5 + 10.5 g a.i./h), 40%.
Take `CC(C)N(C)S(=O)(=O)NC(=O)c1cc(-n2c(=O)cc(C(F)(F)F)n(C)c2=O)c(F)cc1Cl` [Saflufenacil, saflufenacil]: the Control % is listed as 75.4% in the assay with weedy Glycine max (setting [19]); 63.2% with weedy Glycine max (setting [1]); 52.5% with weedy Glycine max (setting [2]); 50.7% with weedy Glycine max (setting [3]); 30% in the assay with Brachiaria decumbens (setting [20]).
With `O=C(O)COc1nc(Cl)c(Cl)cc1Cl` [Triclopyr, triclopyr], the Control % with weedy Glycine max (setting [19]) is recorded as 67.9%; in the assay on Brachiaria decumbens (setting [20]), 0%.
